From publication PMC9729869, “Functional verification and characterization of a type-III geranylgeranyl diphosphate synthase gene from Sporobolomyces pararoseus NGR” (Frontiers in Microbiology, 2022)

Biological target: T1, CrtE (geranylgeranyl diphosphate synthase, GGPPS) (Sporobolomyces pararoseus, UniProt A0A2P1HA31)
T1 construct: dimer only in the predicted model
Assay: TLC of dephosphorylated product (GGOH)
Format: biochemical

T1 sequence (A0A2P1HA31 1-377): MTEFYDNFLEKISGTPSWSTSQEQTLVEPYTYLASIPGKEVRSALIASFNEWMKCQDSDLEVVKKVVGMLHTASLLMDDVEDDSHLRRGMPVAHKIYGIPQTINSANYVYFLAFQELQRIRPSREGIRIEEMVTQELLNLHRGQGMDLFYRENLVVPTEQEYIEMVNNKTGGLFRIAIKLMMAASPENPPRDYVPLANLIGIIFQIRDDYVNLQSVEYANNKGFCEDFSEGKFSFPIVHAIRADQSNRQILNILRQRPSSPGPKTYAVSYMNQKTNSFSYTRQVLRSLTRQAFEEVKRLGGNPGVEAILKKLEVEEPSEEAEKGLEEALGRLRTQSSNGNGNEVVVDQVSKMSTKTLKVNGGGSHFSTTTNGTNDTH

With C=C(C)CCOP(=O)(O)OP(=O)(O)O [IPP, isopentenyl diphosphate] the “TLC of dephosphorylated product (GGOH)” value (50 uM IPP with 50 uM allylic co-substrate (FPP, GPP or DMAPP), else same) was “using three different allylic substrates and IPP as substrates for the reaction”.

For CC(C)=CCC/C(C)=C/CC/C(C)=C/COP(=O)(O)OP(=O)(O)O [FPP, farnesyl diphosphate], the “TLC of dephosphorylated product (GGOH)” value (50 uM FPP, 50 uM IPP, 10 ng CrtE in 200 uL, 100 mM HEPES with 5 mM MgCl2 (enzyme exchange buffer) pH 7.5, 28 C, 2 h, Trx/His/S tags kept) was “largest number of GGPP was produced using FPP”.
